Assay: xn = mol fraction of the nth substance listed
Settings: 101.3 kPa, Liquid; for viscosity: Capillary tube (Ostwald / Ubbelohde) method; for mass density: Pycnometric method

Nc1ccccc1 [aniline] + CN(C)C=O
Settings | mass density, 298.15 K [kg/m3] | mass density, 303.15 K [kg/m3] | mass density, 308.15 K [kg/m3] | mass density, 313.15 K [kg/m3] | viscosity, 298.15 K [mPa·s] | viscosity, 303.15 K [mPa·s] | viscosity, 308.15 K [mPa·s] | viscosity, 313.15 K [mPa·s]
x2 = 0 | 1017.2 | 1012.9 | 1008.6 | 1004.2 | 3.69 | 3.19 | 2.8 | 2.42
x2 = 0.1293 | 1010.3 | 1006 | 1001.7 | 997.3 | 3.296 | 2.864 | 2.521 | 2.186
x2 = 0.2582 | 1005.8 | 1001.5 | 997.2 | 992.9 | 2.908 | 2.54 | 2.242 | 1.952
x2 = 0.3548 | 1000.5 | 996.2 | 991.9 | 987.6 | 2.621 | 2.298 | 2.034 | 1.779
x2 = 0.4642 | 993.9 | 989.5 | 985.1 | 980.7 | 2.3 | 2.025 | 1.8 | 1.583
x2 = 0.5537 | 987.6 | 983.2 | 978.9 | 974.5 | 2.04 | 1.803 | 1.611 | 1.423
x2 = 0.6614 | 978.8 | 974.3 | 969.8 | 965.3 | 1.731 | 1.543 | 1.387 | 1.237
x2 = 0.7558 | 969.2 | 964.8 | 960.4 | 955.9 | 1.466 | 1.319 | 1.194 | 1.079
x2 = 0.8302 | 961.4 | 957 | 952.6 | 948.1 | 1.257 | 1.145 | 1.044 | 0.954
x2 = 0.9123 | 952.3 | 947.7 | 943.1 | 938.4 | 1.038 | 0.955 | 0.88 | 0.819

N#Cc1ccccc1 [benzonitrile] + CN(C)C=O
Settings | mass density, 298.15 K [kg/m3] | mass density, 303.15 K [kg/m3] | mass density, 308.15 K [kg/m3] | mass density, 313.15 K [kg/m3] | viscosity, 298.15 K [mPa·s] | viscosity, 303.15 K [mPa·s] | viscosity, 308.15 K [mPa·s] | viscosity, 313.15 K [mPa·s]
x2 = 0 | 1000.9 | 996.4 | 991.9 | 987.2 | 1.171 | 1.126 | 1.068 | 1.001
x2 = 0.1335 | 995.4 | 990.9 | 986.4 | 981.7 | 1.17 | 1.124 | 1.064 | 0.99
x2 = 0.1981 | 992.7 | 988.2 | 983.7 | 979 | 1.169 | 1.119 | 1.056 | 0.985
x2 = 0.3191 | 987.4 | 982.9 | 978.4 | 973.8 | 1.152 | 1.097 | 1.033 | 0.963
x2 = 0.3873 | 984.3 | 979.8 | 975.3 | 970.6 | 1.134 | 1.078 | 1.015 | 0.948
x2 = 0.4907 | 979 | 974.5 | 970 | 965.3 | 1.099 | 1.042 | 0.98 | 0.918
x2 = 0.6061 | 972.2 | 967.7 | 963.2 | 958.5 | 1.049 | 0.992 | 0.932 | 0.875
x2 = 0.7176 | 965.2 | 960.6 | 956 | 951.2 | 0.992 | 0.936 | 0.879 | 0.825
x2 = 0.7997 | 959.6 | 955 | 950.4 | 945.6 | 0.943 | 0.889 | 0.834 | 0.781
x2 = 0.9209 | 950.6 | 946 | 941.4 | 936.5 | 0.862 | 0.811 | 0.761 | 0.715

Source: the NIST ThermoML archive (doi:10.1021/je030101n)
